Broadly, the IC50 is the concentration needed to halve the response being measured.

T1 sequence (P26663 1027-1657): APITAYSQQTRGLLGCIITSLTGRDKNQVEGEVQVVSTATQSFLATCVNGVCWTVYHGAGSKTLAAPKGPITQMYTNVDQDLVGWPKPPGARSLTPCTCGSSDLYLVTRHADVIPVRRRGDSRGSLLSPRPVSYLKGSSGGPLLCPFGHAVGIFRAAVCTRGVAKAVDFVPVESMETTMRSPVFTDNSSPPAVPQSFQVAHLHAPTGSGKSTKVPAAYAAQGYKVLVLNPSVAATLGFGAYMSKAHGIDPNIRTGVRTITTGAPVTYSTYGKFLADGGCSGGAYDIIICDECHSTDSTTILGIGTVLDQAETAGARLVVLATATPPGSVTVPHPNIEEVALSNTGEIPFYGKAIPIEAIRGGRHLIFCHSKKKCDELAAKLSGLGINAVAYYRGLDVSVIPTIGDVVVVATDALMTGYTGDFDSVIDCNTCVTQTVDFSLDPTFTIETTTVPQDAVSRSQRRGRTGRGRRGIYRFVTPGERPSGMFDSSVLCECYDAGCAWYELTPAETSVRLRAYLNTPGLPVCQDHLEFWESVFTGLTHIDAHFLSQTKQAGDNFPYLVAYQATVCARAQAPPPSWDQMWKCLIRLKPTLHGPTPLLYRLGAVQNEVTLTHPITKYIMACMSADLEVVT

One assay concerns the target T1, HCV NS3 helicase (Hepatitis C virus genotype 1b, UniProt P26663).
T1 construct: full-length NS3 (1-631), purified at Array BioPharma
Briefly: HCV Helicase Prompt FRET Assay (Example A). Format: biochemical. The settings on record: HCV NS3 helicase; tables do not say whether Example A or Example B assay; read-out: IC50 Activity. Put shortly: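 Full-length NS3 (1-631), 5 or 6 nM, preincubated 5 min with compound, then unwinds 50 nM FAM/BHQ-1 duplex substrate with 250 nM capture strand and 300 μM ATP in 25 mM MOPS pH 7.0, 1.5 mM MgCl2, 0.005% Triton X-100, 2% DMSO. Fluorescence (485/535 nm) followed ~30 min at room temperature; IC50 from initial rates by 4- or 5-parameter fit.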
In the case of `CC(C)(C)OC(=O)NCc1ccc2c(c1)c(Cc1nn[nH]n1)cn2Cc1csc2ccc(Cl)cc12` [Example 208], the concentration for half-maximal inhibition (IC50) was less than 10 µM.

For `COc1ccc(N(C)c2cccc(Cn3cc(CC(=O)O)c4ccccc43)c2)cc1` [Example 528], the half-inhibitory concentration (IC50) is less than 10 µM.

In the case of `CC(C)c1ccc(Cn2c(C(=O)N3CCOCC3)c(CC(=O)O)c3cc(Br)ccc32)cc1` [Example 428], the half-inhibitory concentration (IC50) is more than 50 µM.

On to `O=C(O)Cc1cn(-c2ccc3sccc3c2)c2ccccc12` [Example 147], for which the IC50 fell in the range of 10 to 50 µM.

Turning to `O=C(O)Cc1c(Cc2csc3ccc(Cl)cc23)[nH]c2ccc(Br)cc12` [Example 374], the IC50 fell in the range of 10 to 50 µM.

Regarding `CN(c1cccc(Cn2cc(CC(=O)O)c3ccccc32)c1)c1cc(Cl)ccc1Cl` [Example 539], the half-maximal inhibitory concentration (IC50) was less than 10 µM.

Take `COc1cccc(Cn2cc(CC(=O)O)c3cc(Br)ccc32)c1` [Example 111]: the IC50 fell in the range of 10 to 50 µM.

Turning to `CN(Cc1ccccc1)c1ccc(-n2cc(C(O)(C(=O)O)C(F)(F)F)c3ccccc32)cc1` (stereo not shown) [Example 425], the IC50 is less than 10 µM.

On to `CCN(Cc1ccccc1)c1ccc(-n2cc(CC(=O)O)c3ccccc32)c(C)c1` [Example 174], for which the IC50 is less than 10 µM.

On to `O=C(O)Cc1c(C(=O)c2ccc(-c3c(Cl)cccc3Cl)cc2)[nH]c2ccccc12` [Example 273], for which the half-inhibitory concentration (IC50) was in the range of 10 to 50 µM.

As to `CC(C)c1ccc(Cn2cc(CC(=O)O)c3cc(OCc4ccccc4)ccc32)cc1` [Example 114], the half-inhibitory concentration (IC50) is 10 to 50 µM.

On to `Cc1cc(NC(=O)Cc2ccccc2)ccc1-n1cc(CC(=O)O)c2ccccc21` [Example 156], for which the IC50 lay in the range of 10 to 50 µM.

Consider `O=C(O)Cc1cn(-c2ccc(NCc3ccccc3)cc2)c2ccccc12` [Example 161], for which the concentration for half-maximal inhibition (IC50) is less than 10 µM.

Take `Cc1cc(-c2ccc(C(=O)c3[nH]c4ccccc4c3CC(=O)O)cc2)ccc1Cl` [Example 261]: the IC50 is less than 10 µM.

As to `CC(C)c1ccc(Cn2cc(C(NC(=O)c3c[nH]cn3)C(=O)O)c3ccccc32)cc1` (stereo not shown) [Example 422], the 50% inhibitory concentration (IC50) lay in the range of 10 to 50 µM.

For `O=C(O)Cc1c(C(=O)c2cccc(-c3cc(Cl)cc(Cl)c3)c2)oc2ccccc12` [Example 244], the IC50 was less than 10 µM.

On to `COc1ccccc1N(C)c1cccc(Cn2cc(CC(=O)O)c3ccccc32)c1` [Example 526], for which the concentration for half-maximal inhibition (IC50) fell in the range of 10 to 50 µM.

For `CC(CO)N(Cc1ccccc1)c1ccc(-n2cc(CC(=O)O)c3ccccc32)cc1` (stereo not shown) [Example 172], the IC50 was less than 10 µM.

Take `O=C(O)Cc1c(C(=O)c2ccc(-c3ccccc3)cc2)n(CC2CC2)c2ccccc12` [Example 218]: the 50% inhibitory concentration (IC50) is less than 10 µM.

As to `COc1ccc(Oc2cccc(Cn3cc(CC(=O)O)c4ccccc43)c2)c(OC)c1` [Example 489], the IC50 is 10 to 50 µM.

Regarding `CCOC(=O)C(=O)c1cn(-c2ccc([N+](=O)[O-])cc2C)c2ccc(Br)cc12` [Example 379], the concentration for half-maximal inhibition (IC50) is 10 to 50 µM.

For `CCOC(=O)Cc1cn(Cc2ccc(Oc3ccc(Cl)cc3)cc2)c2cc(-c3cccc(OC(C)=O)c3)ccc12` [Example 605], the IC50 was more than 50 µM.

With `CC(C)N(c1cccc(Cn2cc(CC(=O)O)c3ccccc32)c1)c1ccccc1C(F)(F)F` [Example 555], the IC50 was less than 10 µM.

For `CC(=O)NC(C(=O)O)c1cn(Cc2ccc(C(C)C)cc2)c2ccccc12` (stereo not shown) [Example 420], the IC50 fell in the range of 10 to 50 µM.

For `O=C(O)Cc1cn(Cc2ccc(Oc3cccc(Cl)c3Cl)cc2)c2ccccc12` [Example 588], the half-maximal inhibitory concentration (IC50) is less than 10 µM.

For `Cc1cc(C)cc(-c2cccc(C(=O)c3[nH]c4ccccc4c3CC(=O)O)c2)c1` [Example 233], the IC50 was less than 10 µM.

For the compound `O=C(O)Cc1cn(Cc2ccc(Oc3ccc(F)cc3F)cc2)c2ccccc12` [Example 585], the IC50 was less than 10 µM.

Regarding `Nc1cc(N)cc(-c2ccc3c(CC(=O)O)cn(Cc4csc5ccc(Cl)cc45)c3c2)c1` [Example 373], the IC50 is less than 10 µM.

Consider `Cc1cc([N+](=O)[O-])ccc1-n1c2ccccc2c2c(C(=O)O)cccc21` [Example 470], for which the IC50 was more than 50 µM.

In the case of `O=C(O)Cc1cn(Cc2cccc(Oc3ccccc3)c2)c2ccc(Br)cc12` [Example 105], the IC50 is less than 10 µM.

For `Cc1cc([N+](=O)[O-])ccc1-n1cc(C=CC(=O)O)c2cc(OCc3ccccc3)ncc21` [Example 333], the half-maximal inhibitory concentration (IC50) was more than 50 µM.

As to `O=C(O)Cc1c(Cc2ccc(-c3ccc(Cl)c(Cl)c3)cc2)[nH]c2ccccc12` [Example 280], the IC50 is less than 10 µM.

For `CCOC(=O)Cc1cn(Cc2ccc(Oc3ccc(C(F)(F)F)cc3)cc2)c2cc(-c3cccc(OC(C)=O)c3)ccc12` [Example 606], the IC50 was 10 to 50 µM.

Consider `O=C(O)Cc1c(Cc2ccc(-c3ccccc3Cl)cc2)[nH]c2ccc(Br)cc12` [Example 294], for which the IC50 was less than 10 µM.

For `CN(c1cccc(Cn2cc(CC(=O)O)c3ccccc32)c1)c1ccc(C(F)(F)F)cc1C(F)(F)F` [Example 545], the IC50 was in the range of 10 to 50 µM.

For `COc1cccc(Oc2ccc(Cn3cc(CC(=O)O)c4ccccc43)cc2)c1OC` [Example 509], the IC50 was less than 10 µM.

As to `Cc1cc([N+](=O)[O-])ccc1-n1cc(C(O)(C(=O)O)C(F)(F)F)c2cc(Br)ccc21` (stereo not shown) [Example 392], the IC50 was less than 10 µM.

Still in this assay, the particulars now being: Table 21, compounds made using Scheme 28; read-out: IC50 Activity.
On to `CN(c1ccc(Cn2cc(CC(=O)O)c3ccccc32)cc1)c1ccc(F)cc1F` [Example 569], for which the IC50 is less than 10 µM.

Still in this assay, the particulars now being: Table 23, compounds made using Scheme 30; read-out: IC50 Activity.
As for `O=C(O)Cc1cn(Cc2cccc(Oc3cc(Cl)ccc3Cl)c2)c2ccccc12` [Example 599], the concentration for half-maximal inhibition (IC50) was 10 to 50 µM.

In the case of `O=C(O)Cc1cn(Cc2cccc(Oc3cccc(Cl)c3Cl)c2)c2ccccc12` [Example 595], the IC50 is less than 10 µM.

Still in this assay, the particulars now being: Table 25, compounds made using Scheme 32; read-out: IC50 Activity.
On to `CCOC(=O)Cc1cn(Cc2ccc(Oc3cccc(Cl)c3)cc2)c2cc(-c3cc(N)cc(N)c3)ccc12` [Example 612], for which the concentration for half-maximal inhibition (IC50) was less than 10 µM.

The assay is the same for the next values; noted with them: Table 31, compounds made using Schemes 38-45; read-out: IC50 Activity.
`Nc1nc(Cl)cc(-c2ccc3c(CC(=O)O)cn(Cc4csc5ccc(Cl)cc45)c3c2)n1` [Example 636]: the IC50 is less than 10 µM.

Staying with this assay, now noted: Table 32, compounds made using Schemes 46-49; read-out: IC50 Activity.
Turning to `Nc1nnc(-c2ccc3c(CC(=O)O)cn(Cc4csc5ccc(Cl)cc45)c3c2)s1` [Example 660], the IC50 was 10 to 50 µM.

The same assay, now with this note: Table 33, compounds made using Scheme 50; read-out: IC50 Activity.
Regarding `Nc1cc(-c2ccc3c(CC(=O)O)cn(Cc4csc5ccc(Cl)cc45)c3c2)ncn1` [Example 666], the 50% inhibitory concentration (IC50) fell in the range of 10 to 50 µM.

Still in this assay, the particulars now being: Table 34, compounds made using Schemes 51-52; read-out: IC50 Activity.
Regarding `COC(=O)Cc1cn(Cc2csc3ccc(Cl)cc23)c2cc(N3CCCC(OC(C)=O)C3)ccc12` (stereo not shown) [Example 697], the half-maximal inhibitory concentration (IC50) is more than 50 µM.

Take `Nc1cc(-c2ccc3c(CC(=O)NOC4CCCCO4)cn(Cc4csc5ccc(Cl)cc45)c3c2)cc([N+](=O)[O-])c1` (stereo not shown) [Example 690]: the IC50 is more than 50 µM.

With `Nc1cc(-c2ccc3c(CC(=O)NO)cn(Cc4csc5ccc(Cl)cc45)c3c2)cc([N+](=O)[O-])c1` [Example 691], the half-maximal inhibitory concentration (IC50) is 10 to 50 µM.

The assay is the same for the next values; noted with them: Table 35, compounds made using Scheme 53; read-out: IC50 Activity.
For `Nc1cc(N)cc(-c2ccc3c(CC(=O)O)cn(Cc4csc5ccc(Br)cc45)c3c2)c1` [Example 734], the concentration for half-maximal inhibition (IC50) lay in the range of 10 to 50 µM.

As to `Nc1cc(N)cc(-c2ccc3c(CC(=O)O)cn(Cc4cc5cc(Cl)ccc5s4)c3c2)c1` [Example 710], the half-maximal inhibitory concentration (IC50) is less than 10 µM.

The same assay, now with this note: Table 36, compounds made using Scheme 54; read-out: IC50 Activity.
Turning to `Nc1cc(N)cc(-c2ccc3c(CC(=O)O)cn(Cc4csc5cc(Cl)c(F)cc45)c3c2)c1` [Example 723], the half-maximal inhibitory concentration (IC50) is less than 10 µM.

Still in this assay, the particulars now being: Table 37, compounds made using Scheme 55; read-out: IC50 Activity.
`O=C(O)Cc1cn(Cc2csc3ccc(Cl)cc23)c2cc(-c3cccc(Cl)c3)ccc12` [Example 754]: the IC50 is more than 50 µM.

The same assay, now with this note: Table 38, compounds made using Scheme 56, Scheme 57 and Scheme 61; read-out: IC50 Activity.
`CC(C)(C)OC(=O)N(c1cc(Cl)cc2c(Cn3cc(CC(=O)O)c4ccc(Br)cc43)csc12)C1CC1` [Example 774]: the IC50 was less than 10 µM.

The values are drawn from patent publication US20090047246A1, “NOVEL INHIBITORS OF HEPATITIS C VIRUS REPLICATION” (InterMune, Inc., priority 2007, published 2009).
